These results are taken from patent US10294218B2 (VIROSTATICS SRL, priority 2012, dated 2019).

Data set [1] concerns laboratory strain of HIV-1. Put plainly: Antiviral activity against HIV (AV), p24 in infected activated primary T cells. It counts as cell-based. The conditions noted are these: for IC50: Human immunodeficiency virus 1, T-cell, read-out: AV50 (Inhibitory concentration 50% for antiviral activity); for antiviral and antiproliferative activity and cytotoxicity profile (in words): summary of AV, AP and cytotoxicity assays. As to the method: Activated primary T cells are infected with a laboratory strain of HIV-1, then cultured and exposed to different concentrations of the test compounds. HIV replication is analysed by measuring the viral protein p24 and expressed as percentage of untreated control. Inhibition of viral replication (AV) is then calculated (AV=100 minus the % p24 compared to control, AV of control=0%). Inhibitory concentration 50% for antiviral activity (AV50) is calculated.
(§1) In Tables 2, 3 and 4, ND means Not Determined.

Another data set relates to Primary T cells. Put plainly: Antiproliferative activity (AP), mitotic index by flow cytometry. It counts as cell-based. The following applies: T-cell, read-out: AP50 (Inhibitory concentration 50% for antiproliferative capacity). The protocol:
Primary T cells are cultured and exposed to different concentrations of the test compounds. Cell proliferation is analysed by measuring mitotic index (ie the number of cell divisions a population of cells undergoes) through flow cytometry based techniques. Mitotic index is expressed as percentage of untreated control. Inhibition of cell proliferation (AP) is then calculated (AP=100 minus % mitotic index compared to control, AP of control=0%). Inhibitory concentration 50% for antiproliferative capacity (AP50) is calculated.
as §1
On the technique in general: In flow cytometry, cells or beads pass a laser one at a time.

Like-named read-outs stand apart in the source and are kept apart here.

In the case of `COc1ccccc1-c1cc(Nc2ccc(Cl)c(CO)c2)ncn1` [Example 6, (2-Chloro-5-(6-(2-methoxyphenyl)pyrimidin-4-ylamino)phenyl)methanol], the IC50 was more than 1500 nM in data set [1] and more than 500 nM with Primary T cells (primary T cells, mitotic index).
As for `COc1ccc(Nc2cc(-c3ccccc3OC)ncn2)cc1NS(C)(=O)=O` [Example 9, N-(2-Methoxy-5-(6-(2-methoxyphenyl)pyrimidin-4-ylamino)phenyl)methanesulfonamide], the IC50 in data set [1] is less than 1500 nM; with Primary T cells (primary T cells, mitotic index) it was more than 1500 nM.
Consider `CNS(=O)(=O)Nc1cc(Nc2cc(-c3ccccc3OC)ncn2)ccc1OC` [Example 10, (2-Methoxy-5-(6-(2-methoxyphenyl)pyrimidin-4-ylamino)phenyl)(methylsulfamoyl)amine], for which, in data set [1], the IC50 amounted to 800 nM; the “antiviral and antiproliferative activity and cytotoxicity profile (in words)” value was “good antiviral and antiproliferative activity and a good cytotoxicity profile”. Further, the IC50 in the data set on Primary T cells (primary T cells, mitotic index) worked out at 500 nM.
In the case of `COc1ccc(Nc2cc(-c3ccccc3OC)ncn2)cc1NS(=O)(=O)NC1CCCCC1` [Example 13, (2-Methoxy-5-(6-(2-methoxyphenyl)pyrimidin-4-ylamino)phenyl) (cyclohexylsulfamoyl)amine], in data set [1], the IC50 stood at 300 nM; the “antiviral and antiproliferative activity and cytotoxicity profile (in words)” value is “good antiviral and antiproliferative activity and a good cytotoxicity profile”. Besides, the IC50 in the data set on Primary T cells (primary T cells, mitotic index) turned out to be 600 nM.
Take `COc1ccccc1-c1cc(Nc2ccc(Cl)c(C(=O)N3CCCC3)c2)ncn1` [Example 15, (2-Chloro-5-(6-(2-methoxyphenyl)pyrimidin-4-ylamino)phenyl)(pyrrolidin-1-yl)methanone]: in the data set on Primary T cells (primary T cells, mitotic index), the IC50 is more than 500 nM.
Turning to `COc1ccccc1-c1cc(Nc2ccc(Cl)c(Cn3cnc4ccccc43)c2)ncn1` [Example 16, N-(3-((1H-benzo[d]imidazol-1-yl)methyl)-4-chlorophenyl)-6-(2-methoxyphenyl)pyrimidin-4-amine], in data set [1], the IC50 was 110 nM; the “antiviral and antiproliferative activity and cytotoxicity profile (in words)” value is “good antiviral and antiproliferative activity and a good cytotoxicity profile”. In addition, the IC50 in the data set with Primary T cells was determined as 100 nM.
For the molecule `COc1ccccc1-c1cc(Nc2ccc(N3CCN(C)CC3)c(CO)c2)ncn1` [Example 17], the IC50 in data set [1] was more than 1500 nM; with Primary T cells (primary T cells, mitotic index), 350 nM.
The like results for `CCOC(=O)c1cc(Nc2cc(-c3ccccc3OC)ncn2)ccc1N1CCOCC1` [Example 18, Ethyl 5-(6-(2-methoxyphenyl)pyrimidin-4-ylamino)-2-morpholinobenzoate] were, in that order, more than 1500 nM and more than 500 nM.
The like results for `COc1ccccc1-c1cc(Nc2ccc(N3CCOCC3)c(CO)c2)ncn1` [Example 19, (5-(6-(2-Methoxyphenyl)pyrimidin-4-ylamino)-2-morpholinophenyl)methanol] were, in that order, 1000 nM and more than 500 nM.
The matching figures for `COC(=O)c1cc(Nc2cc(-c3ccccc3OC)ncn2)ccc1O` [Example 21, Methyl 2-hydroxy-5-(6-(2-methoxyphenyl)pyrimidin-4-ylamino)benzoate]: less than 1500 nM and more than 500 nM.
As to `COc1ccc(Nc2cc(-c3ccccc3OC)ncn2)cc1F` [Example 22, N-(3-Fluoro-4-methoxyphenyl)-6-(2-methoxyphenyl)pyrimidin-4-amine], the IC50 in data set [1] was less than 1500 nM; in the data set on Primary T cells (primary T cells, mitotic index) it was more than 500 nM.
`COc1ccc(Nc2cc(-c3ccccc3OC)ncn2)cc1C(=O)NCc1ccccc1` [Example 23, N-Benzyl-2-methoxy-5-(6-(2-methoxyphenyl)pyrimidin-4-ylamino)benzamide]: the IC50 (in data set [1]; with Primary T cells) was more than 500 nM in each case.
`COc1ccc(Nc2cc(-c3ccccc3OC)ncn2)cc1CO` [Example 24, (2-Methoxy-5-(6-(2-methoxyphenyl)pyrimidin-4-ylamino)phenyl)methanol]: the IC50 (in data set [1]; with Primary T cells) was more than 500 nM each time.
Consider `CNC(=O)c1cc(Nc2cc(-c3ccccc3OC)ncn2)ccc1OC` [Example 25, 2-Methoxy-5-(6-(2-methoxyphenyl)pyrimidin-4-ylamino)-N-methylbenzamide], for which the IC50 (in data set [1]; with Primary T cells) was more than 500 nM each time.
In the case of `COc1ccc(Nc2cc(-c3ccccc3OC)ncn2)cc1OC(=O)C(C)(C)C` [Example 26, 2-methoxy-5-(6-(2-methoxyphenyl)pyrimidin-4-ylamino)phenyl pivalate], the IC50 in data set [1] (HIV-1 infected activated primary T cells, p24) was 100 nM; in the data set with Primary T cells (primary T cells, mitotic index), 100 nM. In addition, in data set [1], the “antiviral and antiproliferative activity and cytotoxicity profile (in words)” value was “good antiviral and antiproliferative activity and a good cytotoxicity profile”.
Consider `COc1ccc(Nc2cc(-c3ccccc3OC)ncn2)cc1C(=O)NCc1ccncc1` [Example 28, 2-Methoxy-5-(6-(2-methoxyphenyl)pyrimidin-4-ylamino)-N-(pyridin-4-ylmethyl)benzamide], for which the IC50 (in data set [1]; in the data set on Primary T cells) was more than 500 nM each time.
`COc1ccc(Nc2cc(-c3ccccc3OC)ncn2)cc1C=O` [Example 29, 2-Methoxy-5-(6-(2-methoxyphenyl)pyrimidin-4-ylamino)benzaldehyde]: the IC50 is more than 500 nM in data set [1] and more than 500 nM in the data set with Primary T cells (primary T cells, mitotic index).
In the case of `COC(=O)c1cc(Nc2cc(-c3ccccc3OC)ncn2)ccc1OC` [Example 30, Methyl 2-methoxy-5-(6-(2-methoxyphenyl)pyrimidin-4-ylamino)benzoate], the IC50 in data set [1] is more than 1500 nM; in the data set with Primary T cells (primary T cells, mitotic index), more than 500 nM.
As for `COc1ccc(Nc2cc(-c3ccccc3OC)ncn2)cc1Cn1cnc2ccccc21` [Example 31, N-(3-((1H-Benzo[d]imidazol-1-yl)methyl)-4-methoxyphenyl)-6-(2-methoxyphenyl)pyrimidin-4-amine], the IC50 in data set [1] came out at 200 nM; in the data set with Primary T cells it was 350 nM. In addition, in data set [1], the “antiviral and antiproliferative activity and cytotoxicity profile (in words)” value is “good antiviral and antiproliferative activity and a good cytotoxicity profile”.
In the case of `COc1ccc(Nc2cc(-c3ccccc3OC)ncn2)cc1O` [Example 32, 2-Methoxy-5-(6-(2-methoxyphenyl)pyrimidin-4-ylamino)phenol], in data set [1], the IC50 is 150 nM; the “antiviral and antiproliferative activity and cytotoxicity profile (in words)” value is “good antiviral and antiproliferative activity and a good cytotoxicity profile”. In addition, the IC50 in the data set on Primary T cells (primary T cells, mitotic index) amounted to 70 nM.
For the molecule `COc1ccc(Nc2cc(-c3ccccc3OC)ncn2)cc1C(=O)NN` [Example 33, 2-Methoxy-5-(6-(2-methoxyphenyl)pyrimidin-4-ylamino)benzohydrazide], in the data set on Primary T cells, the IC50 was 2000 nM.
Still for that read-out and setting: next, `COc1ccc(Nc2cc(-c3ccccc3OC)ncn2)cc1CNc1ccccc1` [Example 34, N-(4-Methoxy-3-((phenylamino)methyl)phenyl)-6-(2-methoxyphenyl)pyrimidin-4-amine]: more than 5000 nM.
Turning to `COc1ccccc1-c1cc(Nc2ccc(N3CCN(C)CC3)c(S(N)(=O)=O)c2)ncn1` [Example 38, 5-(6-(2-Methoxyphenyl)pyrimidin-4-ylamino)-2-(4-methylpiperazin-1-yl)benzenesulfonamide], the IC50 in data set [1] was less than 1500 nM; in the data set with Primary T cells (primary T cells, mitotic index) it was more than 500 nM.
As to `CCOc1ccc(Nc2cc(-c3ccccc3OC)ncn2)cc1Cn1cnc2ccccc21` [Example 39, N-(3-((1H-Benzo[d]imidazol-1-yl)methyl)-4-ethoxyphenyl)-6-(2-methoxyphenyl)pyrimidin-4-amine], the IC50 was more than 1000 nM in data set [1] and 300 nM in the data set with Primary T cells (primary T cells, mitotic index).
The matching figures for `COc1ccccc1-c1cc(Nc2ccc(F)c(Cn3cnc4ccccc43)c2)ncn1` [Example 40, N-(3-((1H-Benzo[d]imidazol-1-yl)methyl)-4-fluorophenyl)-6-(2-methoxyphenyl)pyrimidin-4-amine]: 500 nM and more than 200 nM.
As for `COc1ccc(Nc2cc(-c3ccccc3OC)ncn2)cc1N` [Example 41, 4-Methoxy-N1-(6-(2-methoxyphenyl)pyrimidin-4-yl)benzene-1,3-diamine], the IC50 in data set [1] is 60 nM; in the data set with Primary T cells, 80 nM. The “antiviral and antiproliferative activity and cytotoxicity profile (in words)” value in data set [1] is “good antiviral and antiproliferative activity and a good cytotoxicity profile”.
As to `COc1ccccc1-c1cc(Nc2ccc(N(C)C)c(Cn3cnc4ccccc43)c2)ncn1` [Example 42, 2-((1H-Benzo[d]imidazol-1-yl)methyl)-N4-(6-(2-methoxyphenyl)pyrimidin-4-yl)-N1,N1-dimethylbenzene-1,4-diamine], in the data set on Primary T cells, the IC50 was 1800 nM.
Take `COc1ccc(Nc2cc(-c3ccccc3OC)ncn2)cc1CN` [Example 43, N-(3-(Aminomethyl)-4-methoxyphenyl)-6-(2-methoxyphenyl)pyrimidin-4-amine]: the “antiviral and antiproliferative activity and cytotoxicity profile (in words)” value in data set [1] was “good antiviral and antiproliferative activity and a good cytotoxicity profile”. For the same molecule, the IC50 in the data set on Primary T cells (primary T cells, mitotic index) is 500 nM.
For the molecule `COc1ccccc1-c1cc(Nc2ccc(Cl)c(C(N)=O)c2)ncn1` [Example 44, 2-Chloro-5-(6-(2-methoxyphenyl)pyrimidin-4-ylamino)benzamide], the IC50 in the data set on Primary T cells (primary T cells, mitotic index) is 5000 nM.
As for `COc1ccc(Nc2cc(-c3ccccc3OC)ncn2)cc1C(N)=O` [Example 45, 2-methoxy-5-(6-(2-methoxyphenyl)pyrimidin-4-ylamino)benzamide], the IC50 is 50 nM in data set [1] and 80 nM in the data set with Primary T cells. Moreover, in data set [1], the “antiviral and antiproliferative activity and cytotoxicity profile (in words)” value is “good antiviral and antiproliferative activity and a good cytotoxicity profile”.
